Results on 34 compounds are retold here after ChEMBL document CHEMBL5244215, “Recent advancement of piperidine moiety in treatment of cancer- A review” (Eur J Med Chem, 2018).

Data set [1] concerns K562. Nature of the data set: cells. To be noted: Homo sapiens. The format is functional, cell-based.
Description: Antileukemic activity against human K562 cells assessed as inhibition of cell growth incubated for 48 to 72 hrs by MTT assay
Data set [2] relates to CCRF-CEM. Kind of data set: cells. The format is functional, cell-based. To be noted: Homo sapiens.
Description: Antileukemic activity against human CEM cells assessed as inhibition of cell growth incubated for 48 to 72 hrs by MTT assay
In the next data set the test system is MCF7. Nature of the data set: cells. The format is functional. To be noted: Homo sapiens, time 48 hrs.
For the next data set, the system named is MDA-MB-231. Nature of the data set: cells. In kind it is functional. To be noted: Homo sapiens, time 48 hrs.
A further data set relates to PANC-1. Kind of data set: cells. In kind it is functional. To be noted: Homo sapiens, time 48 hrs.
Data set [3] deals with IMR-32. Nature of the data set: cells. In kind it is functional, cell-based. To be noted: Homo sapiens, IMR-32, 0.5 h.
Description: Cytotoxicity against human IMR-32 cells assessed as inhibition of cell growth incubated for 30 mins by SRB assay
The next data set in a line: in vitro. To be noted: human, wi-38.
The test system of data set [4] is K562. Kind of data set: cells. To be noted: Homo sapiens, K562, 48 h. In kind it is functional, cell-based.
In data set [5] the test system is COLO 205. Nature of the data set: cells. The format is functional, cell-based. To be noted: Homo sapiens, COLO 205, 0.5 h.
Description: Cytotoxicity against human COLO 205 cells assessed as inhibition of cell growth incubated for 30 mins by SRB assay
For a further data set, the system named is HCT-116. Nature of the data set: cells. In kind it is functional, cell-based. To be noted: Homo sapiens, HCT-116, 48 h.
The test system of another data set is KM12. Kind of data set: cells. The format is functional, cell-based. To be noted: Homo sapiens, KM12, 48 h.
The subject of data set [6] is IMR-32. Kind of data set: cells. In kind it is functional. To be noted: Homo sapiens, time 48 hrs.
Description: Growth inhibition at human IMR-32 cells incubated for 48 hrs by SRB assay
Another data set deals with SiHa. Kind of data set: cells. To be noted: Homo sapiens, time 48 hrs. The format is functional.
The test system of data set [7] is COLO 205. Kind of data set: cells. The format is functional, cell-based. To be noted: Homo sapiens, COLO 205, 48 h.
A further data set has as its system HT-29. Kind of data set: cells. To be noted: Homo sapiens, HT-29, 48 h. The format is functional, cell-based.
Another data set relates to HCT-15. Nature of the data set: cells. The format is functional, cell-based. To be noted: Homo sapiens, HCT-15, 48 h.
In a further data set the test system is A549. Nature of the data set: cells. The format is functional, cell-based. To be noted: Homo sapiens, A549, 48 h.
Another data set deals with SK-N-SH. Nature of the data set: cells. The format is functional, cell-based. To be noted: Homo sapiens, 48 h.
The test system of another data set is SNB-19. Kind of data set: cells. The format is functional. To be noted: Homo sapiens, time 72 hrs, read-out: ED50 (the source's name).
The subject of data set [8] is CCRF-CEM. Nature of the data set: cells. To be noted: Homo sapiens, 48 h. The format is functional, cell-based.
The next data set relates to L1210. Kind of data set: cells. In kind it is functional, cell-based. To be noted: Mus musculus, L1210, 48 h.
Data set [9] is described as follows: cells. The format is functional, cell-based, Molt 4/C8. To be noted: Homo sapiens, Molt4/C8, 48 h.
The subject of another data set is HSC-2. Nature of the data set: cells. The format is functional. To be noted: Homo sapiens, time 48 hrs.
For another data set, the system named is Ca9-22. Nature of the data set: cells. The format is functional. To be noted: Homo sapiens, time 48 hrs.
A further data set relates to HSC-4. Nature of the data set: cells. In kind it is functional. To be noted: Homo sapiens, time 48 hrs.
A further data set relates to HSC-3. Kind of data set: cells. To be noted: Homo sapiens, time 48 hrs. In kind it is functional.
Data set [10] concerns K562. Kind of data set: cells. To be noted: Homo sapiens. In kind it is functional, cell-based. This is another data set of the same source.
Description: Antiproliferative activity against human K562 cells assessed as inhibition of cell proliferation incubated for 48 to 72 hrs by MTT assay
The next data set deals with REH. Nature of the data set: cells. The format is functional, cell-based. To be noted: Homo sapiens.
A further data set deals with P388. Kind of data set: cells. To be noted: Mus musculus, P388, 48 h. The format is functional, cell-based.
In the next data set the test system is NCI-H3122. Kind of data set: cells. The format is functional, cell-based. To be noted: Homo sapiens.
A further data set relates to HepG2. Nature of the data set: cells. The format is functional, cell-based. To be noted: Homo sapiens, HepG2, 48 h.
In the next data set the test system is BEL-7404 tumor cell line. Kind of data set: cells. To be noted: Homo sapiens, BEL-7404, 72 h. The format is functional, cell-based.
Another data set in a line: animal or person. The format is functional, organism-based. To be noted: Homo sapiens, QBC939, light or radiation study, 336 h.
The test system of a further data set is SW-620. Nature of the data set: cells. In kind it is functional, cell-based. To be noted: Homo sapiens, SW-620, 48 h.
The subject of the next data set is HCC 2998. Kind of data set: cells. To be noted: Homo sapiens, HCC 2998, 48 h. In kind it is functional, cell-based.
The nature of data set [11]: cells. The format is functional, cell-based. To be noted: Homo sapiens, QBC939, light or radiation study, 24 h.
Description: Phototoxicity against human QBC939 cells assessed as inhibition of cell growth incubated for 24 hrs followed by irradiated with 54 J/cm^2 of light dose and measured after 24 hrs by MTT colorimetric assay

≈ marks a conversion by molar mass, not a printed value. Where a name gives a salt, the structure may show the parent alone. A value given as a limit tells only on which side of the number the result lay.

A word on the IC50: it is the concentration that inhibits the measured activity by half. Higher therefore signals weaker potency. Usually GI50 stands for the concentration at which growth is held to half of that of the control. Higher therefore signals lower sensitivity of the cells. Usually CC50 stands for the concentration at which the toxic effect on the cells reaches its halfway point. A lower CC50 goes with harm at low concentration.

Description for BEL-7404 tumor cell line: Antiproliferative activity against human BEL-7404 tumor cell line assessed as inhibition of cell proliferation incubated for 72 hrs by MTT assay
Description for Ca9-22: Cytotoxicity against human Ca9-22 cells assessed as reduction in cell viability incubated for 48 hrs by MTT assay
Description for HSC-2: Cytotoxicity against human HSC-2 cells assessed as reduction in cell viability incubated for 48 hrs by MTT assay
Description for HSC-3: Cytotoxicity against human HSC-3 cells assessed as reduction in cell viability incubated for 48 hrs by MTT assay
Description for HSC-4: Cytotoxicity against human HSC-4 cells assessed as reduction in cell viability incubated for 48 hrs by MTT assay
Description for HepG2: Antiproliferative activity against human HepG2 cells assessed as reduction in cell viability incubated for 48 hrs by MTT spectrophotometric assay
Description for MCF7: Growth inhibition at human MCF7 cells incubated for 48 hrs by SRB assay
Description for MDA-MB-231: Growth inhibition at human MDA-MB-231 cells incubated for 48 hrs by SRB assay
Description for NCI-H3122: Antiproliferative activity against human NCI-H3122 cells assessed as inhibition of cell proliferation
Description for PANC-1: Growth inhibition at human PANC-1 cells incubated for 48 hrs by SRB assay
Description for REH: Antiproliferative activity against human REH cells assessed as inhibition of cell proliferation incubated for 48 to 72 hrs by MTT assay
Description for SNB-19: Antiproliferative activity against human SNB-19 cells assessed as cell growth inhibition incubated for 72 hrs by WST-1 assay
Description for SiHa: Growth inhibition at human SiHa cells incubated for 48 hrs by SRB assay

On to `COc1ccc(C(=O)c2ccc(OCC(=O)N3CCC(CCCC4CCN(C(=S)Nc5ccc(Cl)cc5)CC4)CC3)cc2)c(OC)c1`, for which the IC50 in the data set with K562 [1] and with CCRF-CEM [2] was 2.1 µM each time.

Turning to `O=C(/C=C/c1ccccc1)c1ccc(OCCN2CCCC2)cc1`, the GI50 with MCF7 is less than 10 µM.

Consider `COc1ccc(CNC(=O)NC2CCN(c3cc(-c4ccc(Oc5ccccc5)cc4)ncn3)CC2)cc1`, for which the GI50 with MDA-MB-231 came out at 0.2 µM.

With `COc1ccc(CNC(=O)NC2CCN(c3cc(-c4ccc(OC)cc4F)ncn3)CC2)cc1`, the GI50 in the data set on PANC-1 was 0.47 µM.

As for `CN1OC[C@@H]2CN(c3ccccc3)c3oc4cc(Cl)ccc4c(=O)c3[C@@H]21`, 10.1 µM corresponded to half-maximal inhibition in the data set with IMR-32 [3] (IC50).

In turn, `COc1cc(/C=C/C(=O)N2CCC=C(Cl)C2=O)cc(OC)c1OC` yielded an IC50 at 48 h in “in vitro” greater than 60 µM.

For the compound `O=c1[nH]cc(F)c(=O)[nH]1` [FLUOROURACIL], the results for the IC50 in the data set with K562 [4] and in the data set with COLO 205 [5] were 8.48 µg/mL (≈ 65.2 µM) and 27.7 µM, respectively.

`CCN1CC[C@@](O)(c2ccc(Oc3ccc(Cl)cc3)cc2)[C@H](C(=O)c2ccc(Oc3ccc(Cl)cc3)cc2)C1`: the half-maximal inhibitory concentration (IC50) with HCT-116 is 3.8 µM; with KM12, 2.57 µM.

Consider `O=C(Nc1ccccc1)NC1CCN(c2cc(-c3ccc(Oc4ccccc4)cc3)ncn2)CC1`, for which the GI50 with IMR-32 [6] was 0.65 µM.

For `COC(=O)c1ccc(NC(=O)NC2CCN(c3cc(-c4ccc(OC)cc4F)ncn3)CC2)cc1`, the GI50 with SiHa was 0.22 µM.

Turning to `CCN1CC[C@@](O)(c2ccc(Oc3ccc(C)cc3)cc2)[C@H](C(=O)c2ccc(Oc3ccc(C)cc3)cc2)C1`, the IC50 in the data set with COLO 205 [7] came to 12 µM; in the data set with HT-29 it was 3.31 µM; in the data set on HCT-15, 3.98 µM.

Consider `COc1cccc2c1C(=O)c1c(O)c3c(c(O)c1C2=O)C[C@@](O)(C(=O)CO)C[C@@H]3O[C@H]1C[C@H](N)[C@H](O)[C@H](C)O1` [DOXORUBICIN HYDROCHLORIDE], for which, in the data set with IMR-32 [3], the midpoint of inhibition, the IC50, lay at 1.7 µM.

As for `COC(=O)C1C(=O)CC(c2ccc(OC)cc2)N(c2ccccc2)C1c1ccc(OC)cc1` (stereo not drawn), the figures for the IC50 with A549 and in the data set on SK-N-SH were 27 µM and 11 µM, respectively.

Consider `Cn1cnc2nc(SCCN3CCCCC3)nc(SCCN3CCCCC3)c21`, for which the EC50 in the data set with SNB-19 was 9.18 µg/mL (≈ 21.8 µM).

As for `COc1ccc(/C=C/C(=O)c2ccc(OCCN3CCCCC3)cc2)cc1`, the GI50 in the data set with MCF7 is less than 10 µM.

For the compound `O=C1/C(=C/c2ccccc2)CN(C(=O)c2ccc(/C=C/C(=O)c3ccccc3)cc2)C/C1=C\c1ccccc1`, the IC50 in the data set on CCRF-CEM [8] was 1.58 µM.

As to `COc1ccc(C(=O)c2ccc(OCC(=O)N3CCC(CCCC4CCN(C(=O)Nc5ccc(Cl)cc5)CC4)CC3)cc2)c(OC)c1`, the values for the 50% inhibitory concentration (IC50) in the data set on K562 [1] and in the data set with CCRF-CEM [2] were 1.6 µM and 2 µM, respectively.

For `O=C1/C(=C/c2ccccc2)CN(C(=O)c2ccc(/C=C/C(=O)c3ccc(O)cc3)cc2)C/C1=C\c1ccccc1`, the values for the IC50 in the data set on L1210 and in “cells [9]” were 5.34 µM and 1.6 µM, respectively.

With `O=C(/C=C/c1ccc(OCCN2CCCCC2)cc1)c1ccc(F)cc1`, the GI50 in the data set with MCF7 is less than 10 µM.

In the case of `CN1O[C@@H](c2ccccc2)[C@@H]2CN(c3ccccc3)c3oc4ccccc4c(=O)c3[C@@H]21`, the IC50 in the data set with COLO 205 [5] came out at 12.6 µM.

`COc1cc(/C=C2\Cc3ccccc3C2=O)cc(CN2CCCCC2)c1O`: the CC50 in the data set on HSC-2 stood at 7.7 µM; in the data set on Ca9-22, 6.5 µM; in the data set on HSC-4, 9.9 µM; in the data set with HSC-3 it was 8.4 µM.

For the compound `O=C(c1ccc(F)c([N+](=O)[O-])c1)N1CCC(CCCC2CCNCC2)CC1`, the IC50 was 2 µM with K562 [10] and 2.3 µM with REH.

`O=C1/C(=C/c2ccccc2)CN(C(=O)c2ccc(/C=C/C(=O)c3ccc([N+](=O)[O-])cc3)cc2)C/C1=C\c1ccccc1` yielded an IC50 in the data set on P388 of 0.221 µM.

With `O=C(/C=C/c1ccc(Cl)cc1)c1ccc(OCCN2CCCCC2)cc1`, the GI50 in the data set with MCF7 is less than 10 µM.

For `COc1cc(C2CCN(C(=O)CO)CC2)ccc1Nc1ncc(C(F)(F)F)c(Nc2ccc(C3CCN(C(=O)CO)CC3)cc2OC)n1`, in the data set with NCI-H3122, the IC50 is 0.046 µM.

`O=C(NC1CCN(Cc2c(F)cccc2F)CC1)c1ccc(Oc2ccccc2)cc1` gave an IC50 with HepG2 of 0.25 µM.

In the data set with BEL-7404 tumor cell line, `CCOC(=O)C12CC3CC(C1)CC(C(=O)OC1CC(C)(C)N(O)C(C)(C)C1)(C3)C2` had an IC50 of 4.33 µM.

In the case of `c1cc2c(cc1CN1CCC(=NN=C3CCN(Cc4ccc5c(c4)OCO5)CC3)CC1)OCO2`, the IC50 in the data set with K562 [4] came to 6.35 µg/mL (≈ 13.7 µM).

In the data set with MCF7, `O=C(/C=C/c1ccccc1)c1ccc(OCCN2CCCCC2)cc1` displayed a GI50 of less than 10 µM.

As for `O=C(/C=C/c1ccc(OCCN2CCCCC2)cc1)c1ccccc1`, the GI50 in the data set with MCF7 was less than 10 µM.

On to `COc1ccc(/C2=C3\C=CC(=N3)/C(c3ccc(OC)cc3)=c3/cc/c([nH]3)=C(\c3ccc(OC)cc3)C3=NC(C(N4CCCCC4)=C3)C(c3ccc(OC)cc3)c3ccc2[nH]3)cc1` (stereo not drawn), for which the IC50 in “animal or person” worked out at 5.48 µM.

Consider `CCN1CC[C@@](O)(c2ccc(Oc3ccccc3)cc2)[C@H](C(=O)c2ccc(Oc3ccccc3)cc2)C1`, for which the values for the IC50 with SW-620 and in the data set with HCC 2998 were 6.61 µM and 12 µM, respectively.

In the case of `COc1ccc(C(=O)c2ccc(OCC(=O)N3CCC(CCCC4CCN(C(=O)Nc5ccc(F)cc5)CC4)CC3)cc2)c(OC)c1`, the IC50 in the data set on K562 [1] amounted to 2.2 µM; with CCRF-CEM [2], 2.3 µM.

`COC(C)c1c(C)c2cc3nc(cc4[nH]c(cc5nc(cc1[nH]2)C(C)=C5CCC(=O)O)c(CCC(=O)O)c4C)C(C)=C3C(C)O` (stereo not drawn) returned an IC50 in the data set “cells [11]” of 9.46 µM.
